# System: TbSMT
# Assay: not given
# Parameters: method as in PMID 26496686
# Conditions: cited from earlier work
row,Compound,partition ratio against TbSMT
1,"CC(=CCC[C@@H](C)[C@H]1CC[C@H]2C3=CC=C4C[C@@H](O)CC[C@]4(C)[C@H]3CC[C@]12C)CF [26-flourocholesta-5,7,24-trieniol]",3

# System: Ac28-SMT
# Assay: Substrate kinetics and product analysis with recombinant Ac28-SMT
# Assay type: biochemical, Acanthamoeba castellanii
# Parameters: catalytic competence (kcat/Km) with Ac28-SMT: unit not given here
# Conditions: from Lineweaver-Burk plots
# Method: (§1) The SMT constructs were transformed into competent BL21(DE3) cells and transformants selected against 100 µg/ml ampicillin. Expression of the SMT constructs and partial purification of the recombinant proteins followed the procedure described previously ([19]). […] In one tube, cells were induced by addition of isopropyl thio-galactoside at a final concentration of 1 mM and in the other tube, were un-induced. Cells were harvested 2 and 4 h after induction and an equal number of cells (as calculated by OD @600 nm) from induced (+) and un-induced (−) cultures were boiled with 1X Laemmli’s buffer and analyzed by SDS-PAGE (12%). Gel was stained with Coomassie Brilliant Blue (0.2%) to establish the molecular weight and purity of the expressed protein. Total protein concentrations were determined by Bradford dye-binding procedure with bovine γ-globulin as standard. To determine the catalytic activity of the recombinant proteins, enzyme assays were carried out using soluble bacterial extract (100,000 g fraction) in 9 ml test tubes containing a total of 600 µl assay volume for 45 min (initial velocity conditions). The assay buffer contained 20 mM phosphate buffer in 5% (v/v) glycerol at pH 7.5, sterol acceptor emulsified in 12 µl Tween 80 (1.2 g/l), and the substrate tested over the concentration range 5 to 150 µM against 1.2 mg of total protein. The reaction was initiated by the addition of saturating levels of [methyl-^3H3]SAM, 0.9 µCi, at 150 µM. Incubation mixtures were saponified with methanolic potassium hydroxide and extracted with hexane (3 × 1 ml) and concentrated to dryness providing the nonsaponifiable lipid fraction; radioactivity was determined by liquid scintillation counting. […]
Compound,Km as substrate of Ac28-SMT,catalytic competence (kcat/Km) with Ac28-SMT,kcat as substrate of Ac28-SMT
C=C(CCC(C)C1CCC2C3=CCC4C(C)C(O)CCC4(C)C3CCC21C)C(C)C (stereo not drawn) [24(28)-methylenelophenol],~25 µM,~0.03,~0.013 s⁻¹

# Same assay, conditions: normalized; saturating substrate, 45 min, 35°C
row,Compound,product ratio generated by Ac28-SMT
1,CC(C)=CCCC(C)C1CC[C@@]2(C)C3=C(CCC12C)C1(C)CCC(O)CC1CC3 (stereo partly drawn) [14α-methylzymosterol],26
2,C=C(CCC(C)C1CCC2(C)C3CCC4C(C)(C)C(O)CCC45CC35CCC12C)C(C)C (stereo not drawn) [24(28)-methylenecycloartanol],0
3,C=C(CCC(C)C1CCC2C3=CCC4C(C)C(O)CCC4(C)C3CCC21C)C(C)C (stereo not drawn) [24(28)-methylenelophenol],100
4,CC(C)=CCCC(C)C1CC[C@@]2(C)C3=C(CCC12C)C1(C)CCC(O)[C@@H](C)C1CC3 (stereo partly drawn) [31-norlanosterol],49
5,"CC(C)=CCCC(C)C1CCC2C3=CC=C4CC(O)CCC4(C)C3CCC21C (stereo not drawn) [cholesta-5,7,24-trienol]",50
6,CC(C)=CCC[C@@H](C)[C@H]1CC[C@@]2(C)[C@@H]3CC[C@H]4C(C)(C)[C@@H](O)CC[C@@]45C[C@@]35CC[C@]12C [cycloartenol],67
7,C=C(CC[C@@H](C)[C@H]1CC[C@@]2(C)[C@@H]3CC[C@H]4[C@H](C)[C@@H](O)CC[C@@]45C[C@@]35CC[C@]12C)C(C)C [cycloeucalenol],0
8,C=C(CCC(C)C1CCC2C3=CCC4CC(O)CCC4(C)C3CCC21C)C(C)C (stereo not drawn) [episterol],64
9,C=C(CCC(C)C1CCC2C3=C(CCC21C)C1(C)CCC(O)CC1CC3)C(C)C (stereo not drawn) [fecosterol],29
10,CC(C)=CCC[C@@H](C)[C@H]1CC[C@@]2(C)C3=C(CC[C@]12C)[C@@]1(C)CC[C@H](O)C(C)(C)[C@@H]1CC3 [lanosterol],15
11,C=C(CC[C@@H](C)[C@H]1CC[C@@]2(C)C3=C(CC[C@]12C)[C@@]1(C)CC[C@H](O)[C@@H](C)[C@@H]1CC3)C(C)C [obtusifoliol],0
12,CC(C)=CCCC(C)C1CCC2C3=C(CCC21C)C1(C)CCC(O)CC1CC3 (stereo not drawn) [zymosterol],63
13,eburicol,0

# System: Ac24-SMT
# Assay: Substrate kinetics and product analysis with recombinant Ac24-SMT
# Assay type: biochemical, Acanthamoeba castellanii
# Conditions: normalized to cycloartenol at ∼70% conversion; saturating substrate, 45 min, 35°C
# Method: as §1
row,Compound,product ratio generated by Ac24-SMT
1,CC(C)=CCCC(C)C1CC[C@@]2(C)C3=C(CCC12C)C1(C)CCC(O)CC1CC3 (stereo partly drawn) [14α-methylzymosterol],97
2,C=C(CCC(C)C1CCC2(C)C3CCC4C(C)(C)C(O)CCC45CC35CCC12C)C(C)C (stereo not drawn) [24(28)-methylenecycloartanol],0
3,C=C(CCC(C)C1CCC2C3=CCC4C(C)C(O)CCC4(C)C3CCC21C)C(C)C (stereo not drawn) [24(28)-methylenelophenol],0
4,CC(C)=CCCC(C)C1CC[C@@]2(C)C3=C(CCC12C)C1(C)CCC(O)[C@@H](C)C1CC3 (stereo partly drawn) [31-norlanosterol],100
5,"CC(C)=CCCC(C)C1CCC2C3=CC=C4CC(O)CCC4(C)C3CCC21C (stereo not drawn) [cholesta-5,7,24-trienol]",100
6,CC(C)=CCC[C@@H](C)[C@H]1CC[C@@]2(C)[C@@H]3CC[C@H]4C(C)(C)[C@@H](O)CC[C@@]45C[C@@]35CC[C@]12C [cycloartenol],100
7,C=C(CC[C@@H](C)[C@H]1CC[C@@]2(C)[C@@H]3CC[C@H]4[C@H](C)[C@@H](O)CC[C@@]45C[C@@]35CC[C@]12C)C(C)C [cycloeucalenol],0
8,C=C(CCC(C)C1CCC2C3=CCC4CC(O)CCC4(C)C3CCC21C)C(C)C (stereo not drawn) [episterol],0
9,C=C(CCC(C)C1CCC2C3=C(CCC21C)C1(C)CCC(O)CC1CC3)C(C)C (stereo not drawn) [fecosterol],0
10,CC(C)=CCC[C@@H](C)[C@H]1CC[C@@]2(C)C3=C(CC[C@]12C)[C@@]1(C)CC[C@H](O)C(C)(C)[C@@H]1CC3 [lanosterol],100
11,C=C(CC[C@@H](C)[C@H]1CC[C@@]2(C)C3=C(CC[C@]12C)[C@@]1(C)CC[C@H](O)[C@@H](C)[C@@H]1CC3)C(C)C [obtusifoliol],0
12,CC(C)=CCCC(C)C1CCC2C3=C(CCC21C)C1(C)CCC(O)CC1CC3 (stereo not drawn) [zymosterol],97
13,eburicol,0

# Same assay, conditions: saturating SAM 150 µM, initial velocity conditions
row,Compound,Km (Michaelis / binding constant) as substrate of Ac24-SMT
1,CC(C)=CCC[C@@H](C)[C@H]1CC[C@@]2(C)[C@@H]3CC[C@H]4C(C)(C)[C@@H](O)CC[C@@]45C[C@@]35CC[C@]12C [cycloartenol],~44 µM

# Same assay, conditions: saturating SAM, initial velocity conditions
row,Compound,kcat (turnover rate) as substrate of Ac24-SMT
1,CC(C)=CCC[C@@H](C)[C@H]1CC[C@@]2(C)[C@@H]3CC[C@H]4C(C)(C)[C@@H](O)CC[C@@]45C[C@@]35CC[C@]12C [cycloartenol],about 1.5 min^−1

# System: Acanthamoeba castellanii trophozoites (strain ATCC 30010)
# Assay: not given
# Parameters: method as in PMID 26014948
# Conditions: previously reported; read-out: IC50 for Ac growth, previously reported value; cited from earlier work
row,Compound,IC50
1,C[C@@H](c1ncncc1F)[C@](O)(Cn1cncn1)c1ccc(F)cc1F [voriconazole],390 nM

# System: Acanthamoeba castellanii trophozoites (strain ATCC 30010)
# Assay: Ac trophozoite growth inhibition and minimum amoebicidal concentration (trypan blue exclusion)
# Assay type: cell-based
# Conditions: 48 h incubation
# Method: Ac strain ATCC 30010 was inoculated (1 × 10^4 cells/ml) into tissue culture T-25 ml flasks, prepared with ATTC media 712 and cultured axenically in 5 ml medium at 25°C. Continuous cultures populated by trophozoites ([…]; the remaining cells were cysts) was maintained by sub-culturing 4–5 day growth arrested cells (1 × 10^6 cells/ml) into fresh medium. Steroidal inhibitor and azole susceptibility assays were performed in 24-well (4 × 6) microtiter plates (3 ml total). Trophozoite assay conditions and preparation of stock solutions made to 1 μg/10 μl and 1 μg/100 μl in DMSO through serial dilution to achieve final inhibitor concentrations of 64, 32, 16, 8, 4, 2, 1, 0.5, 0.25, 0.125, 0.0625, and 0.03125 µg/ml in 1% DMSO as reported previously for voriconazole incubated with Ac ([25]). Growth curves to evaluate treated trophozoites were initiated with 1 × 10^6 cells/ml and incubated for 48 h. Cell number was calculated with the use of a hemocytometer. The percentage of viable trophozoites following exposure to different concentrations of inhibitors was determined by the standard trypan blue exclusion method. Cells stained blue were considered nonviable. […] The IC50 of inhibitors against trophozoite growth was evaluated using GraphPad Prism with default setting (GraphPad Software Inc., CA).
row,Compound,"MAC (complete inhibition of growth, minimum amoebicidal concentration)"
1,C[C@@H](c1ncncc1F)[C@](O)(Cn1cncn1)c1ccc(F)cc1F [voriconazole],3 µM

# Same assay, conditions: Acanthamoeba castellanii, ATCC30010; Ac trophozoites, 48 h incubation
row,Compound,IC50
1,C[C@@H](c1ncncc1F)[C@](O)(Cn1cncn1)c1ccc(F)cc1F [voriconazole],140 nM

# System: Acanthamoeba castellanii trophozoites sterol biosynthesis
# Assay: Sterol composition of treated Ac trophozoites (GC/MS)
# Assay type: cell-based
# Conditions: to 48 h
# Method: Amoeba and HEK cells were harvested at one or more points during growth in the presence and absence of steroidal inhibitor and azole at IC50 or MACs of the inhibitor or at 40 µM for HEK cells. Cell pellets were split with an internal standard of known amounts of 5α-cholestane added to one of the cell pellets for determination of sterol amounts in cells. Cells were saponified directly in aqueous methanolic potassium hydroxide at the reflux temperature for 1 h, which yielded total sterol (free plus sterol released from ester bonds). The resulting neutral lipids obtained by dilution with water and extraction with hexane (Fisher) were analyzed by GC/MS or HPLC-equipped with a diode array detector against cholesterol as a chromatographic reference. GC and HPLC retention times of sterols were compared with those obtained from authentic standards in our steroid collection ([18]–[22]). To determine the trophozoite sterol metabolome, GC/MS analysis of cell pellet nonsaponfiables was typically carried out using control cultures incubated in 5 ml medium in 25 ml T-flasks inoculated with 1 × 10^4 trophozoites/ml and cultured for 72 h. To generate significant cell pellets for sterol analysis of treated cells, trophozoites were cultured in 10 ml medium in 25 ml T-flasks inoculated with 1 × 10^5 cells/ml and grown for 48 h.
row,Compound,accumulation of substrate of the target enzyme in treated trophozoites
1,C[C@@H](c1ncncc1F)[C@](O)(Cn1cncn1)c1ccc(F)cc1F [voriconazole],≤ 1 % total

# — article PMC5711494, “Sterol methyltransferase a target for anti-amoeba therapy: towards transition state analog and suicide substrate drug design” (Journal of Lipid Research, 2017)
